# Patent US6069132A, “Phosphazole compounds” (priority 1997, dated 2000)
# Test system: IL-1β
# Assay: Inhibition of IL-1β in LPS-stimulated PBMCs
# Assay type: cell-based, human
# Details: for inhibition at 10 µg/mL / inhibition at 50 µg/mL / inhibition at 100 µg/mL / inhibition at 250 µg/mL: Homo sapiens, PBMC; for inhibition at 10 µg/mL: 10 μg/ml; for inhibition at 50 µg/mL: 50 μg/ml; for inhibition at 100 µg/mL: 100 μg/ml; for inhibition at 250 µg/mL: 250 μg/ml
# Protocol: The phosphazole T70241 was further evaluated for its activity against IL-1β in PBMCs stumulated with LPS and aliquotes collected after 4, 24 and 48 hour post-stimulation.
# Primary cell assays. Primary human peripheral blood mononuclear cells (PBMCS) were isolated as described by Ojwang et al. (114). Isolated monocytes were added to 24-well cluster plates (Costar, Cambridge, Mass.) at a concentration of 1×10^5 viable cells per well. Culture medium or test material dilutions in culture medium were added to the wells, the plates were then incubated at 37° C. for one hour. […] The plates were incubated an additional 4, 24 or 48 hours. The supernatant fluids were then harvested and centrifuged to pellet cells or cellular debris, and the supernatant fluids were stored at -70° C. until they were assayed for the presence of TNFα using a commercially available ELISA kit, such as that described in Example 46.
smiles,measurement,setting,value
"Nc1ncnc2pc[nH]c12 (stereo not shown) [T70241, 7-amino-1H-1,3-azaphospholo[4,5-d]pyrimidine]",inhibition at 10 µg/mL,4 h,18%
same,inhibition at 10 µg/mL,24 h,6%
same,inhibition at 10 µg/mL,48 h,4%
same,inhibition at 50 µg/mL,4 h,86%
same,inhibition at 50 µg/mL,24 h,24%
same,inhibition at 50 µg/mL,48 h,36%
same,inhibition at 100 µg/mL,4 h,98%
same,inhibition at 100 µg/mL,24 h,78%
same,inhibition at 100 µg/mL,48 h,70%
same,inhibition at 250 µg/mL,4 h,99.7%
same,inhibition at 250 µg/mL,24 h,86%
same,inhibition at 250 µg/mL,48 h,75%
same,inhibition of IL-1β in PBMCs,up to 48 hour,inhibited IL-1β up to 48 hour in a dose dependent fashion
